From patent US5034544A, “Antiviral 2,3-bis-(aryl)-3-chloropropenal compounds” (priority 1989, dated 1991)
Several values for one entry are separate records, joined by “and”; a condition that tells them apart may be missing. Identical values can stand only once. Like-named read-outs stand apart in the source and are kept apart here.

Columns and labels:
[1] = tested on: human immunodeficiency virus (HIV); experiment: microbe, parasite or virus in culture
Method: (§1) The assay basically involves the killing of T4 lymphocytes by HIV in cell cultures. Small amounts of HIV are added to cells, and at least two complete cycles of virus reproduction are necessary to obtain the required killing. Agents which interact with virions, cells, or virus gene-products to interfere with viral activities will protect cells from cytolysis. All tests are compared with a positive control done at the same time under identical conditions. The positive control in these experiments was AZT.
(§2) Harvest experiments were conducted in which HIV infected cell cultures were post-treated with the compound of Example 1 at a number of concentrations. T4 lymphocytes (CEM cell line) are exposed to HIV at a virus to cell ratio approximately 0.05, and plated along with noninfected control cells in 96-well microtiter plates. 2,3-Bis-(3,4-dimethoxyphenyl)-3-chloropropenal was dissolved in dimethyl sulfoxide, then diluted 1:200 in cell culture medium. Further dilutions (half-log10) are prepared before adding to an equal volume of medium containing either infected or noninfected cells. Plates are incubated at 37° C. in a 5% carbon dioxide atmosphere for 6 days. Triphenyl tetrazolium chloride (1% weight by volume) is added to each well and cultures are further incubated to allow color development of viable cells. Individual wells are analyzed spectrophotometrically to quantitate color production and are viewed microscopically for detection of viable cells and confirmation of protective activity. Drug-treated virus-infected cells are compared with drug-treated noninfected cells and other appropriate controls (untreated infected and untreated noninfected cells, drug-containing wells without cells, etc.) on the same plate. Data are reviewed in comparison with other tests done at the same time, and a determination about antiviral activity is made.
(§3) The solid line connecting the diamond symbols depicts the percentage of surviving HIV-infected cells treated with the present test sample at the indicated concentration relative to uninfected, untreated controls. This line represents the in-vitro anti-HIV activity of the sample. The dashed line connecting the square symbols depicts the percentage of surviving uninfected cells treated with the present compound relative to the same uninfected, untreated controls. This line represents the in-vitro growth inhibitory properties. The viral cytopathic effect in this experiment is indicated by a dotted reference line. This line show the extent of destruction of cells by the virus in the absence of treatment and is used as a quality control parameter. Values of this parameter […] 50% are considered acceptable in the current protocol. Reference line at 50% is depicted as alternating dots and dashes.

[2] = tested on: T4 lymphocytes (CEM cell line); experiment: in-vitro growth inhibition / cytotoxicity in noninfected T4 lymphocytes (UNINFECTED CULTURE); assay type: cell-based; settings: for cytotoxicity to uninfected cells (in words): visual / microscopic; for IC50: Homo sapiens, CCRF-CEM, uninfected CEM cells; for Response (%), uninfected culture (surviving uninfected cells, % of uninfected untreated control): 6 days, Tables 1-3 = separate experiments, 8640 min
Method: as §1, §2, §3
(§4) Also, every attempt was made to reduce variability in the assay procedure set forth hereinabove and the values for EC50, IC50 and Therapeutic Index (TI) were determined within experimental limitations.

[3] = as above; assay type: cell-based; settings: human, cem cells, 6 days, Table 4, read-out: Response (%), uninfected culture (surviving uninfected cells, % of uninfected untreated control)
Method: as §1, §2, §3, §4

[4] = Human immunodeficiency virus 1, CCRF-CEM, in Homo sapiens, 144 h, read-out: Response (%), infected culture (surviving HIV-infected cells, % of uninfected untreated control)

Structure (SMILES): COc1ccc(C(Cl)=C(C=O)c2ccc(OC)cc2)cc1 [2,3-di-(4-methoxyphenyl)-3-chloro-acrylaldehyde, reference compound]
- anti-HIV activity in cell culture (in words) [1]: found unacceptable for further preclinical consideration

Structure (SMILES): Cc1cn([C@H]2C[C@H](N=[N+]=[N-])[C@@H](CO)O2)c(=O)[nH]c1=O [AZT, azidothymidine, reference compound]
- cytotoxicity to uninfected cells (in words) ([2]; uninfected culture): exhibited microscopic cytotoxicity to uninfected cells

Structure (SMILES): COc1ccc(C(Cl)=C(C=O)c2ccc(OC)c(OC)c2)cc1OC [Example 1, 2,3-Bis-(3,4-Dimethoxyphenyl)-3-Chloropropenal]
- selectivity compared to AZT (in words) [1]: pronounced at the reported concentrations
- selectivity, infected vs. uninfected cells (in words) [1]: selective, exhibiting toxicity to infected cells, yet not toxic towards normal cells or cells free of virus
- viability at 0.0266 µg/mL [1, 4]: 6.9%
- viability at 0.0733 µM [1, 4]: 18.5%
- viability at 0.084 µg/mL [1, 4]: 6.8%
- viability at 0.231 µM [1, 4]: 18%
- viability at 0.265 µg/mL [1, 4]: 5.4%
- viability at 0.266 µg/mL [1, 4]: 8.2%
- viability at 0.732 µM [1, 4]: 18.8%
- viability at 0.839 µg/mL [1, 4]: 7.2%
- viability at 2.31 µM [1, 4]: 19.9%
- viability at 2.65 µg/mL [1, 4]: 6.6%
- viability at 7.31 µM [1, 4]: 60.2%
- viability at 23.1 µM [1, 4]: 79.5%
- viability at 26.4 µg/mL [1, 4]: 84.6%
- viability at 73 µM [1, 4]: 76.2%
- viability at 83.7 µg/mL [1, 4]: 94.8%
- viability at 230 µM [1, 4]: 75.4%
- EC50 ([1]; Human immunodeficiency virus 1, CCRF-CEM, read-out: EC50 (effective kill concentration for 50% of the experimental virus)): ~15.6 µg/mL
- EC50 ([1]; Human immunodeficiency virus 1, CCRF-CEM, read-out: EC50 (molar value)): 5.45 µM
- TI50 (therapeutic index) ([1]; human, cem cells, 8640 min): > 4.22×10^+1
- viability at 144 h, 230 µM ([3]; dose 2.30 × 10^-4 Molar): 77.3%
- viability at 144 h, 23.1 µM ([3]; dose 2.31 × 10^-5 Molar): 90.2%
- viability at 144 h, 2.31 µM ([3]; dose 2.31 × 10^-6 Molar): 92.7%
- viability at 144 h, 0.231 µM ([3]; dose 2.31 × 10^-7 Molar): 104%
- viability at 144 h, 73 µM ([3]; dose 7.30 × 10^-5 Molar): 83.5%
- viability at 144 h, 7.31 µM ([3]; dose 7.31 × 10^-6 Molar): 94.3%
- viability at 144 h, 0.732 µM ([3]; dose 7.32 × 10^-7 Molar): 96.5%
- viability at 144 h, 0.0733 µM ([3]; dose 7.33 × 10^-8 Molar): 101%
- IC50 ([2]; FIG. 1 / Table 1 experiment, read-out: IC50 (inhibition concentration required for 50% of cell growth)): > 83.7 µg/mL
- IC50 ([2]; FIG. 4 / Table 4 experiment, read-out: IC50 (molar value), cell growth): > 230 µM
- Response (%), uninfected culture (surviving uninfected cells, % of uninfected untreated control) ([2]; dose 2.64 × 10^+1 μg/ml): 112.4% and 109.3% and 115.9%
- Response (%), uninfected culture (surviving uninfected cells, % of uninfected untreated control) ([2]; dose 2.65 × 10^+0 μg/ml): 103.5% and 106.3% and 108.3%
- Response (%), uninfected culture (surviving uninfected cells, % of uninfected untreated control) ([2]; dose 2.65 × 10^-1 μg/ml): 102.7% and 99.7% and 103.4%
- Response (%), uninfected culture (surviving uninfected cells, % of uninfected untreated control) ([2]; dose 2.66 × 10^-2 μg/ml): 99.2% and 104.4%
- Response (%), uninfected culture (surviving uninfected cells, % of uninfected untreated control) ([2]; dose 8.37 × 10^+1 μg/ml): 112.2% and 91.9% and 114.3%
- Response (%), uninfected culture (surviving uninfected cells, % of uninfected untreated control) ([2]; dose 8.38 × 10^+0 μg/ml): 106.0% and 103.1% and 113.1%
- Response (%), uninfected culture (surviving uninfected cells, % of uninfected untreated control) ([2]; dose 8.39 × 10^-1 μg/ml): 105.6% and 101.2% and 107.0%
- Response (%), uninfected culture (surviving uninfected cells, % of uninfected untreated control) ([2]; dose 8.40 × 10^-2 μg/ml): 104.5% and 103.1% and 99.6%
- cell growth in uninfected culture (in words) ([2]; uninfected culture, Tables 1-4): cell growth actually increased in most of these test results
- cytotoxicity to uninfected cells (in words) ([2]; uninfected culture): no significant visual or microscopic cytotoxicity was observed in the uninfected culture

Structure (SMILES): O=CC(=C(Cl)c1ccc2c(c1)OCO2)c1ccc2c(c1)OCO2 [Example 3, 2,3-Bis-(3,4-Methylenedioxyphenyl)-3-Chloropropenal]
- anti-HIV activity in cell culture (in words) [1]: produced mixed results under the experimental assay procedure reported hereinabove, the results clearly indicated antiviral activity
- antiviral activity relative to 2,3-bis-(3,4-dimethoxyphenyl)-3-chloropropenal (in words) [1]: significantly less than that of the structurally analogous test compound
